One experiment addresses T1, BA/F3-FLT3-ITD + D835Y (Homo sapiens, UniProt P36888, D835Y, cells depend on it, form not given).
T1 sequence (P36888 with tags, fused parts or gaps INS600HVDFREYEYD/D835Y): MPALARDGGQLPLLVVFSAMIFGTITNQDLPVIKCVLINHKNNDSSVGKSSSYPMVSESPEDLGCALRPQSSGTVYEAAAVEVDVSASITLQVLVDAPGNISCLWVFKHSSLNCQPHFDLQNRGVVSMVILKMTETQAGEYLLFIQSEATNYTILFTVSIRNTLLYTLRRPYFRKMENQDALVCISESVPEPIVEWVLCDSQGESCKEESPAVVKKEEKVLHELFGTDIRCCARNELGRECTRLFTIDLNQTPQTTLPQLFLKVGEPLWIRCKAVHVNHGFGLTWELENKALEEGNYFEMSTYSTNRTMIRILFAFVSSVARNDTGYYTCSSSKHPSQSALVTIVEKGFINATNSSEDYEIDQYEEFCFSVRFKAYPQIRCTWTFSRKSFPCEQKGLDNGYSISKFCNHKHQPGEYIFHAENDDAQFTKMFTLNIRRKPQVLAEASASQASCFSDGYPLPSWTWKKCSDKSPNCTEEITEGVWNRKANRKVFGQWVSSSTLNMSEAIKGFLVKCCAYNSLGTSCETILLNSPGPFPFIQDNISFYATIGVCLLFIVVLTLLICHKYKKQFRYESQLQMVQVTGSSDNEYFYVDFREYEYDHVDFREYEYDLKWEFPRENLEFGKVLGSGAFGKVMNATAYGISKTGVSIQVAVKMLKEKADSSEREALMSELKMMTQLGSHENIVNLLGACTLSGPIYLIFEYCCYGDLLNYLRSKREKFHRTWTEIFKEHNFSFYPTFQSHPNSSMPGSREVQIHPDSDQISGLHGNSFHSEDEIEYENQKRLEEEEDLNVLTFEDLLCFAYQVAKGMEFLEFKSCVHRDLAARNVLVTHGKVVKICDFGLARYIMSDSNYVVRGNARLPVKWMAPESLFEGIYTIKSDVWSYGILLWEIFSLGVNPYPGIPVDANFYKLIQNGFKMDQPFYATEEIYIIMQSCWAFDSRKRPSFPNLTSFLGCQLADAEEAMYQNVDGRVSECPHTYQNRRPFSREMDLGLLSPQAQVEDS
Kind of experiment: Engineered BA/F3 cell growth assay, FLT3 ITD/D835Y. It is filed as cell-based, murine. The conditions noted are these: 3 d growth. In a few lines: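 IC50 derived from CellTiter-Glo ATP luminescence after 3 days at 37 °C, 5% CO2, over eight 1:3 dilutions from 1 μM (0.2% DMSO final). Cells: IL-3-independent murine Ba/F3 expressing full-length FLT3 ITD/D835Y, 1×10^4 per well.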

In experiment [1] the test system is MOLM-14 F691L (endogenous FLT3 ITD and transfected FLT3 F691L). In words: MOLM-14 F691L cell proliferation assay (CellTiter-Glo). Type of experiment: cell-based. The settings on record: Homo sapiens, MOLM-14, 72 h; 3 d growth, GMean. In a few lines: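 MOLM-14 derivatives carrying D835Y or F691L, selected under escalating AC220, were seeded at 1×10^4 cells/well and exposed to an 8-point 1:3 compound series (1 to 0.00046 μM, 0.2% DMSO final) for three days at 37° C., 5% CO2. CellTiter-Glo luminescence (ATP content) versus concentration gave IC50.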

One may read the GI50 as the concentration at which growth is held to half of that of the control. Broadly, the IC50 is the concentration that gives 50% inhibition. Regarding `Cc1ncc(NC(=O)Cc2ccc(-c3cnc(Nc4cn(C)cn4)nc3)cc2F)cc1C(F)(F)F` [Compound P-0099, 2-[2-fluoro-4-[2-[(1-methylimidazol-4-yl)amino]pyrimidin-5-yl]phenyl]-N-[6-methyl-5-(trifluoromethyl)-3-pyridyl]acetamide], the GI50 at BA/F3-FLT3-ITD + D835Y was 0.0001 to 10 µM. Besides, in experiment [1], the IC50 fell in the range of 0.0001 to 10 µM.

For the compound `Cn1cnc(Nc2ncc(-c3ccc(CC(=O)Nc4cnc(Cl)c(C(F)(F)F)c4)c(F)c3)cn2)c1` [Compound P-0100, N-[6-chloro-5-(trifluoromethyl)-3-pyridyl]-2-[2-fluoro-4-[2-[(1-methylimidazol-4-yl)amino]pyrimidin-5-yl]phenyl]acetamide], the GI50 at BA/F3-FLT3-ITD + D835Y is 0.0001 to 10 µM. For the same compound, in experiment [1], the IC50 lay in the range of 0.0001 to 10 µM.

On to `COc1ncc(NC(=O)Cc2ccc(-c3cnc(Nc4cn(C)cn4)nc3)cc2F)cc1C(F)(F)F` [Compound P-0101, 2-[2-fluoro-4-[2-[(1-methylimidazol-4-yl)amino]pyrimidin-5-yl]phenyl]-N-[6-methoxy-5-(trifluoromethyl)-3-pyridyl]acetamide], for which the GI50 at BA/F3-FLT3-ITD + D835Y lay within 0.0001 to 10 µM. The compound further returned an IC50 in experiment [1] of 0.0001 to 10 µM.

In the case of `Cn1cnc(Nc2ncc(-c3ccc(CC(=O)Nc4cc(C(C)(F)F)ccn4)c(F)c3)cn2)c1` [Compound P-0102, N-[4-(1,1-difluoroethyl)-2-pyridyl]-2-[2-fluoro-4-[2-[(1-methylimidazol-4-yl)amino]pyrimidin-5-yl]phenyl]acetamide], on BA/F3-FLT3-ITD + D835Y, the GI50 was in the range of 0.0001 to 10 µM. In experiment [1], this compound had an IC50 of 0.0001 to 10 µM.

Consider `Cn1cnc(Nc2ncc(-c3ccc(CC(=O)Nc4cncc(C(C)(F)F)c4)c(F)c3)cn2)c1` [Compound P-0103, N-[5-(1,1-difluoroethyl)-3-pyridyl]-2-[2-fluoro-4-[2-[(1-methylimidazol-4-yl)amino]pyrimidin-5-yl]phenyl]acetamide], for which, on BA/F3-FLT3-ITD + D835Y, the GI50 was 0.0001 to 10 µM. In experiment [1], this compound returned an IC50 of 0.0001 to 10 µM.

`Cn1cc(Nc2ncc(-c3ccc(CC(=O)Nc4cnc(F)c(C(C)(F)F)c4)cc3)cn2)cn1` [Compound P-0104, N-[5-(1,1-difluoroethyl)-6-fluoro-3-pyridyl]-2-[4-[2-[(1-methylpyrazol-4-yl)amino]pyrimidin-5-yl]phenyl]acetamide]: on BA/F3-FLT3-ITD + D835Y, the GI50 was in the range of 0.0001 to 10 µM. Also, the IC50 in experiment [1] fell in the range of 0.0001 to 10 µM.

For `Cn1cc(Nc2ncc(-c3ccc(CC(=O)Nc4cnc(F)c(C(C)(F)F)c4)c(F)c3)cn2)cn1` [Compound P-0105, N-[5-(1,1-difluoroethyl)-6-fluoro-3-pyridyl]-2-[2-fluoro-4-[2-[(1-methylpyrazol-4-yl)amino]pyrimidin-5-yl]phenyl]acetamide], the GI50 at BA/F3-FLT3-ITD + D835Y lay in the range of 0.0001 to 10 µM. This compound also gave an IC50 in experiment [1] of 0.0001 to 10 µM.

For `Cn1cc(Nc2ncc(-c3ccc(CC(=O)Nc4ccc(C(F)(F)F)cn4)c(F)c3)cn2)cn1` [Compound P-0106, 2-[2-fluoro-4-[2-[(1-methylpyrazol-4-yl)amino]pyrimidin-5-yl]phenyl]-N-[5-(trifluoromethyl)-2-pyridyl]acetamide], the GI50 at BA/F3-FLT3-ITD + D835Y is 0.0001 to 10 µM. Besides, in experiment [1], the IC50 lay in the range of 0.0001 to 10 µM.

As for `Cn1cc(Nc2ncc(-c3ccc(CC(=O)Nc4cc(Cl)c(C5CC5)cn4)c(F)c3)cn2)cn1` [Compound P-0107, N-(4-chloro-5-cyclopropyl-2-pyridyl)-2-[2-fluoro-4-[2-[(1-methylpyrazol-4-yl)amino]pyrimidin-5-yl]phenyl]acetamide], the GI50 at BA/F3-FLT3-ITD + D835Y fell in the range of 0.0001 to 10 µM. The compound also registered an IC50 in experiment [1] of 0.0001 to 10 µM.

For `Cn1cc(Nc2ncc(-c3ccc(CC(=O)Nc4ccc(C(C)(C)C#N)nc4)c(F)c3)cn2)cn1` [Compound P-0108, N-[6-(1-cyano-1-methyl-ethyl)-3-pyridyl]-2-[2-fluoro-4-[2-[(1-methylpyrazol-4-yl)amino]pyrimidin-5-yl]phenyl]acetamide], the GI50 at BA/F3-FLT3-ITD + D835Y was in the range of 0.0001 to 10 µM. In experiment [1], the IC50 lay within 0.0001 to 10 µM.

On to `Cn1cc(Nc2ncc(-c3ccc(CC(=O)Nc4ccc(C(F)(F)F)cn4)cc3)cn2)cn1` [Compound P-0109, 2-[4-[2-[(1-methylpyrazol-4-yl)amino]pyrimidin-5-yl]phenyl]-N-[5-(trifluoromethyl)-2-pyridyl]acetamide], for which, at BA/F3-FLT3-ITD + D835Y, the GI50 lay in the range of 0.0001 to 10 µM. This compound also registered an IC50 in experiment [1] of 0.0001 to 10 µM.

On to `Cn1cc(Nc2ncc(-c3ccc(CC(=O)Nc4ccc(C(F)(F)F)nc4)c(F)c3)cn2)cn1` [Compound P-0110, 2-[2-fluoro-4-[2-[(1-methylpyrazol-4-yl)amino]pyrimidin-5-yl]phenyl]-N-[6-(trifluoromethyl)-3-pyridyl]acetamide], for which, on BA/F3-FLT3-ITD + D835Y, the GI50 lay in the range of 0.0001 to 10 µM. Also, the IC50 in experiment [1] is 0.0001 to 10 µM.

Consider `CCc1cncc(NC(=O)Cc2ccc(-c3cnc(Nc4cnn(C)c4)nc3)cc2F)c1` [Compound P-0111, N-(5-ethyl-3-pyridyl)-2-[2-fluoro-4-[2-[(1-methylpyrazol-4-yl)amino]pyrimidin-5-yl]phenyl]acetamide], for which the GI50 at BA/F3-FLT3-ITD + D835Y lay in the range of 0.0001 to 10 µM. Besides, the IC50 in experiment [1] lay in the range of 0.0001 to 10 µM.

In the case of `Cn1cc(Nc2ncc(-c3ccc(CC(=O)Nc4cccnc4)cc3)cn2)cn1` [Compound P-0131, 2-[4-[2-[(1-methylpyrazol-4-yl)amino]pyrimidin-5-yl]phenyl]-N-(3-pyridyl)acetamide], the GI50 at BA/F3-FLT3-ITD + D835Y was in the range of 0.0001 to 10 µM. In experiment [1], the IC50 fell in the range of 0.0001 to 10 µM.

In the case of `Cn1cc(Nc2ncc(-c3ccc(CC(=O)NCc4cccnc4)cc3)cn2)cn1` [Compound P-0132, 2-[4-[2-[(1-methylpyrazol-4-yl)amino]pyrimidin-5-yl]phenyl]-N-(3-pyridylmethyl)acetamide], the GI50 at BA/F3-FLT3-ITD + D835Y was 0.0001 to 10 µM. In addition, the IC50 in experiment [1] lay in the range of 0.0001 to 10 µM.

Turning to `COc1cncc(NC(=O)Cc2ccc(-c3cnc(Nc4cnn(C)c4)nc3)cc2)c1` [Compound P-0133, N-(5-methoxy-3-pyridyl)-2-[4-[2-[(1-methylpyrazol-4-yl)amino]pyrimidin-5-yl]phenyl]acetamide], the GI50 on BA/F3-FLT3-ITD + D835Y is 0.0001 to 10 µM. In experiment [1], this compound came in with an IC50 of 0.0001 to 10 µM.

In the case of `Cn1cc(Nc2ncc(-c3ccc(CC(=O)Nc4ccnc(C(F)(F)F)c4)cc3)cn2)cn1` [Compound P-0134, 2-[4-[2-[(1-methylpyrazol-4-yl)amino]pyrimidin-5-yl]phenyl]-N-[2-(trifluoromethyl)-4-pyridyl]acetamide], on BA/F3-FLT3-ITD + D835Y, the GI50 lay in the range of 0.0001 to 10 µM. The compound further came in with an IC50 in experiment [1] of 0.0001 to 10 µM.

For the compound `Cn1cc(Nc2ncc(-c3ccc(CC(=O)Nc4cc(C(F)(F)F)ncn4)cc3)cn2)cn1` [Compound P-0135, 2-[4-[2-[(1-methylpyrazol-4-yl)amino]pyrimidin-5-yl]phenyl]-N-[6-(trifluoromethyl)pyrimidin-4-yl]acetamide], the GI50 on BA/F3-FLT3-ITD + D835Y fell in the range of 0.0001 to 10 µM. The IC50 in experiment [1] was 0.0001 to 10 µM.

On to `Cn1cc(Nc2ncc(-c3ccc(CC(=O)Nc4cncc(C(F)(F)F)c4)cc3)cn2)cn1` [Compound P-0136, 2-[4-[2-[(1-methylpyrazol-4-yl)amino]pyrimidin-5-yl]phenyl]-N-[5-(trifluoromethyl)-3-pyridyl]acetamide], for which, on BA/F3-FLT3-ITD + D835Y, the GI50 fell in the range of 0.0001 to 10 µM. For the same compound, the IC50 in experiment [1] lay in the range of 0.0001 to 10 µM.

Regarding `Cn1cc(Nc2ncc(-c3ccc(CC(=O)Nc4ccnc(C(F)(F)F)n4)cc3)cn2)cn1` [Compound P-0137, 2-[4-[2-[(1-methylpyrazol-4-yl)amino]pyrimidin-5-yl]phenyl]-N-[2-(trifluoromethyl)pyrimidin-4-yl]acetamide], the GI50 at BA/F3-FLT3-ITD + D835Y fell in the range of 0.0001 to 10 µM. In experiment [1], this compound yielded an IC50 of 0.0001 to 10 µM.

(Values after patent US10160747B2, “Compounds and methods for kinase modulation, and indications therefor” (Plexxikon Inc., priority 2016, dated 2018).)
